For test [1], the system named is kanamycin- and ribostamycin-resistant bacteria. The settings on record: some kanamycin- and ribostamycin-resistant bacteria; cited from earlier work.
In test [2] the test system is Pseudomonas aeruginosa GN315. Description: Minimum inhibitory concentration, serial dilution on nutrient agar. In kind it is cell-based. The settings on record: GN315, 37°C, 18 hours, read-out: Minimum Inhibitory Concentration.
Another test concerns Proteus vulgaris OX 19. Described as above. The settings on record: OX19, 37°C, 18 hours, read-out: Minimum Inhibitory Concentration. In kind it is cell-based.
In test [3] the test system is Corynebacterium bovis 1810. The description is as above. In kind it is cell-based. The settings on record: Corynebacterium bovis, 1810; 37°C, 18 hours; read-out: Minimum Inhibitory Concentration.
Test [4] concerns Salmonella enteritidis 1891. The description is as above. Particulars: Salmonella enterica, 18 h, read-out: Minimum Inhibitory Concentration. In kind it is cell-based.
Test [5] concerns Bacillus subtilis NRRL B-558. The description is as above. In kind it is cell-based. The settings on record: NRRLB558, 37°C, 18 hours, read-out: Minimum Inhibitory Concentration.
In test [6] the test system is Staphylococcus aureus Smith. The description is as above. In kind it is cell-based. The settings on record: 37°C, 18 hours, read-out: Minimum Inhibitory Concentration.
In the next test the test system is Bacillus anthracis. Description: microbe, parasite or virus in culture. In kind it is cell-based. Particulars: 18 h, read-out: Minimum Inhibitory Concentration.
The next test has as its system Escherichia coli NIHJ. The experiment in a line: Minimum inhibitory concentration, serial dilution on nutrient agar. In kind it is cell-based. Particulars: 37°C, 18 hours, read-out: Minimum Inhibitory Concentration.
The test system of test [7] is Escherichia coli LA290 R56. The test is described as above. In kind it is cell-based. The settings on record: LA290R56, 18 h, read-out: Minimum Inhibitory Concentration.
In test [8] the test system is Mycobacterium smegmatis ATCC 607. The test is described as above. In kind it is cell-based. Particulars: Mycolicibacterium smegmatis, ATCC607; 37°C, 18 hours; read-out: Minimum Inhibitory Concentration.
The test system of test [9] is Escherichia coli LA290 R64. The test is described as above. In kind it is cell-based. Particulars: LA290R64, 18 h, read-out: Minimum Inhibitory Concentration.
The subject of test [10] is Escherichia coli K-12 ML 1410 R81. The description is as above. The settings on record: 18 h, read-out: Minimum Inhibitory Concentration. In kind it is cell-based.
The test system of test [11] is Staphylococcus aureus Terajima. The description is as above. In kind it is cell-based. The settings on record: 37°C, 18 hours, read-out: Minimum Inhibitory Concentration.
Test [12] deals with Bacillus subtilis PCI 219. The description is as above. In kind it is cell-based. Particulars: PCI219, 37°C, 18 hours, read-out: Minimum Inhibitory Concentration.
The subject of another test is Shigella sonnei JS 11746. The description is as above. In kind it is cell-based. The settings on record: JS11746, 37°C, 18 hours. On the procedure:
(§1) The minimum inhibitory concentrations (mcg/ml) of 1-N-DL-isoserylkanamycin,1-N-DL-isoserylkanamycin B and 1-N-DL-isoseryl-3',4'-dideoxykanamycin B against various microorganisms were determined according to the serial dilution method using nutrient agar medium at 37°C, the estimation being effected after 18 hours incubation. For comparison purposes, the minimum inhibitory concentrations of kanamycin, kanamycin B and 3',4'-dideoxykanamycin B were also determined in the same manner and under the same conditions as mentioned above.
(§2) The antibacterial spectra of 1-N-DL-isoseryl-kanamycin (abbreviated as 1-IS-KM), 1-N-DL-isoseryl-kanamycin B (abbreviated as 1-IS-KMB) and 1-N-DL-isoseryl-3',4'-dideoxykanamycin B (abbreviated as 1-IS-DKB) are shown in the following table together with those of kanamycin (abbreviatedas KM), kanamycin B (abbreviated as KMB) and 3',4'-dideoxykanamycin B (abbreviated as DKB).

Test [13] deals with Pseudomonas aeruginosa A3. Described as above. In kind it is cell-based. The settings on record: 37°C, 18 hours. The protocol: as §1, §2
Test [14] deals with Shigella flexneri 4b JS 11811. The test is described as above. In kind it is cell-based. The settings on record: 4BJS11811, 37°C, 18 hours. On the procedure:
as §1, §2

The subject of test [15] is Pseudomonas aeruginosa TI-13. Described as above. The settings on record: TI13, 37°C, 18 hours. In kind it is cell-based. The protocol: as §1, §2
For test [16], the system named is Escherichia coli K-12 ML 1630. The description is as above. In kind it is cell-based. The settings on record: K12ML1630, 37°C, 18 hours. The protocol: as §1, §2
Test [17] has as its system Klebsiella pneumoniae 22 No. 3038. The description is as above. In kind it is cell-based. Particulars: 22NO.3038, 37°C, 18 hours, read-out: Minimum Inhibitory Concentration.
A further test relates to phosphotransferase. Particulars: phosphorylation of the 3'-hydroxyl group; cited from earlier work.
In test [18] the test system is Escherichia coli JR66/W677. Description: Minimum inhibitory concentration, serial dilution on nutrient agar. In kind it is cell-based. The settings on record: JR66/W677, 37°C, 18 hours, read-out: Minimum Inhibitory Concentration.
The subject of another test is Escherichia coli W677. Described as above. In kind it is cell-based. The settings on record: W677, 37°C, 18 hours, read-out: Minimum Inhibitory Concentration.
The subject of test [19] is Pseudomonas aeruginosa 99. Described as above. In kind it is cell-based. Particulars: Pseudomonas aeruginosa, 99; 37°C, 18 hours; read-out: Minimum Inhibitory Concentration.
In test [20] the test system is Pseudomonas aeruginosa No.12. The test is described as above. Particulars: NO.12, 37°C, 18 hours, read-out: Minimum Inhibitory Concentration. In kind it is cell-based.
Test [21] concerns Escherichia coli JR66/W677. The settings on record: nucleotidyltransferase-producing resistant strain; cited from earlier work.
Test [22] has as its system Escherichia coli K-12 ML 1410. The experiment in a line: Minimum inhibitory concentration, serial dilution on nutrient agar. In kind it is cell-based. Particulars: K12ML1410, 18 h, read-out: Minimum Inhibitory Concentration.
The subject of test [23] is Shigella dysenteriae JS 11910. Described as above. The settings on record: JS11910, 18 h, read-out: Minimum Inhibitory Concentration. In kind it is cell-based.
Test [24] relates to Escherichia coli LA290 R55. Described as above. In kind it is cell-based. Particulars: LA290R55, 18 h, read-out: Minimum Inhibitory Concentration.
Test [25] deals with Klebsiella pneumoniae PCI 602. The description is as above. Particulars: PCI602, 37°C, 18 hours, read-out: Minimum Inhibitory Concentration. In kind it is cell-based.
The subject of test [26] is Escherichia coli K-12 ML 1629. The test is described as above. In kind it is cell-based. The settings on record: K12ML1629, 37°C, 18 hours, read-out: Minimum Inhibitory Concentration.
For test [27], the system named is Staphylococcus aureus FDA 209P. The test is described as above. Particulars: FDA209P, 37°C, 18 hours, read-out: Minimum Inhibitory Concentration. In kind it is cell-based.
Test [28] has as its system kanamycin-resistant strains. The settings on record: phosphotransferase-producing resistant strains; cited from earlier work.
The next test concerns Escherichia coli K-12. Description: Minimum inhibitory concentration, serial dilution on nutrient agar. In kind it is cell-based. The settings on record: K12, 37°C, 18 hours, read-out: Minimum Inhibitory Concentration.
The test system of a further test is Sarcina lutea PCI 1001. The test is described as above. In kind it is cell-based. The settings on record: Micrococcus luteus, PCI1001; 37°C, 18 hours; read-out: Minimum Inhibitory Concentration.
In another test the test system is Salmonella typhosa T-63. The description is as above. In kind it is cell-based. Particulars: Salmonella enterica, 18 h, read-out: Minimum Inhibitory Concentration.
For the next test, the system named is nucleotidyltransferase. Particulars: adenylylation of 2"-hydroxyl group with ATP; cited from earlier work.
Test [29] deals with Bacillus cereus ATCC 10702. The experiment in a line: Minimum inhibitory concentration, serial dilution on nutrient agar. In kind it is cell-based. Particulars: ATCC10702, 37°C, 18 hours, read-out: Minimum Inhibitory Concentration.

≈ marks a conversion by molar mass, not a printed value.

On to `NCC[C@H](O)C(=O)N[C@@H]1C[C@H](N)[C@@H](O[C@H]2O[C@H](CN)[C@@H](O)[C@H](O)[C@H]2N)[C@H](O[C@@H]2O[C@H](CO)[C@@H](O)[C@H]2O)[C@H]1O` [butirosin B, 1-N-[(S)-4-amino-2-hydroxy-n-butyryl]-ribostamycin], for which the “activity against resistant bacteria” value in test [1] was “active”.
For the molecule `NC[C@@H]1CC[C@@H](N)[C@@H](O[C@H]2[C@H](O)[C@@H](O[C@H]3O[C@H](CO)[C@@H](O)[C@H](N)[C@H]3O)[C@H](N)C[C@@H]2N)O1` [DKB, 3',4'-dideoxykanamycin B, reference compound], the MIC is above 100 µg/mL in test [2]; below 0.2 µg/mL in the test on Proteus vulgaris OX 19; 3.13 µg/mL (≈ 6.93 µM) in [3]; 1.56 µg/mL (≈ 3.45 µM) in test [4]; below 0.2 µg/mL in test [5]; below 0.2 µg/mL in [6]. For the same molecule, the MIC was below 0.2 µg/mL with Bacillus anthracis; 0.39 µg/mL (≈ 0.864 µM) in the test with Escherichia coli NIHJ; 12.5 µg/mL (≈ 27.7 µM) in test [7]; 0.39 µg/mL (≈ 0.864 µM) in test [8]; 6.25 µg/mL (≈ 13.8 µM) in [9]; 1.56 µg/mL (≈ 3.45 µM) in test [10]. Also, the MIC in test [11] was below 0.2 µg/mL; in test [12], below 0.2 µg/mL; in the test with Shigella sonnei JS 11746, 0.78 µg/mL (≈ 1.73 µM); in test [13], 1.56 µg/mL (≈ 3.45 µM); in [14] it was 1.56 µg/mL (≈ 3.45 µM); in test [15], 1.56 µg/mL (≈ 3.45 µM). For the same molecule, the MIC in [16] turned out to be 0.78 µg/mL (≈ 1.73 µM); in test [17], 100 µg/mL (≈ 221 µM); in test [18], 50 µg/mL (≈ 111 µM); in the test on Escherichia coli W677 it was 0.2 µg/mL (≈ 0.443 µM); in [19], 3.13 µg/mL (≈ 6.93 µM); in test [20], 0.78 µg/mL (≈ 1.73 µM). Further, the MIC is 1.56 µg/mL (≈ 3.45 µM) in test [22]; 1.56 µg/mL (≈ 3.45 µM) in test [23]; 50 µg/mL (≈ 111 µM) in test [24]; 0.39 µg/mL (≈ 0.864 µM) in [25]; 0.78 µg/mL (≈ 1.73 µM) in test [26]; below 0.2 µg/mL in test [27]. In addition, the MIC in the test on Escherichia coli K-12 was 0.78 µg/mL (≈ 1.73 µM); in the test on Sarcina lutea PCI 1001, 6.25 µg/mL (≈ 13.8 µM); with Salmonella typhosa T-63 it was below 0.2 µg/mL; in test [29], 0.78 µg/mL (≈ 1.73 µM). Also, in the test with phosphotransferase, the “susceptibility to / inactivation by phosphotransferase” value was “not susceptible”. Also, in test [21], the “activity against Escherichia coli JR66/W677” value was “inactive”. Moreover, in [28], the “activity against kanamycin-resistant strains” value was “actually effective”. Besides, in the test on nucleotidyltransferase, the inactivation by nucleotidyltransferase entry is “inactivating”.

Source of the values: patent US3939143A, “1-N-isoserylkanamycins and the production thereof” (Zaidan Hojin Biseibutsu Kagaku Kenkyu Kai, priority 1973, dated 1976).
